Data on two compounds can be found in US20230181485A1, “Uses and Formulations of Cannabinoids” (priority 2020, published 2023).

Data set [1] concerns SARS-CoV-2 virus (isolate BetaCoV/Germany/BavPat1/2020 p. 1). Kind of data set: antiviral assay, Vero E6 cells with SARS-CoV-2, focus forming units. Type of data set: cell-based. The following applies: 24 h.
Data set [2] is described as follows: systemic exposure after i.p. and oral application in mice and rats (Deiana et al.). Type of data set: in vivo. To be noted: 20 mg/kg, assuming dose-proportional plasma concentrations. As for the experimental part:
A comparative investigation for systemic exposure after i.p. and oral application of CBD in mice and rats has shown that 120 mg/kg as a single dose leads to a maximum plasma concentration of 14,000 ng/ml in mice (S. Deiana et al. (2012). Plasma and brain pharmacokinetic profile of cannabidiol (CBD), cannabidivarine (CBDV), Delta(9)-tetrahydrocannabivarin (THCV) and cannabigerol (CBG) in rats and mice following oral and intraperitoneal administration and CBD action on obsessive-compulsive behaviour. Psychopharmacology (Berl) 219(3): 859-73).

The conditions of data set [3]: cited from earlier work.
The conditions of data set [4]: mice; 120 mg/kg single dose; cited from earlier work.
For data set [5], the system named is IL-6 secretion. The following applies: majority of cellular models; cited from earlier work.
Data set [6] relates to LPS-induced acute lung injury. The following applies: cited from earlier work.
Data set [7] has as its system LPS-induced acute lung injury. To be noted: 20 mg/kg, 6 h after LPS; cited from earlier work.
Data set [8] deals with human mononuclear cells. The following applies: nanomolar or micromolar concentrations; cited from earlier work.
Data set [9] relates to human neutrophils. The following applies: cited from earlier work.
Data set [10] deals with CD83 dendritic cell activation marker. The following applies: dendritic cells from individuals with HIV infection; cited from earlier work.
The test system of data set [11] is microglial cells. The following applies: 1-16 μmol/l; cited from earlier work.
The test system of data set [12] is chemically induced acute hepatitis. To be noted: 25 mg/kg; cited from earlier work.
Data set [13] concerns activated memory T cell line. To be noted: 1-5 μmol/l, cited from earlier work.
The test system of data set [14] is ischemia-reperfusion-induced kidney injury. To be noted: 10 mg/kg after induced kidney injury; cited from earlier work.
The conditions of data set [15]: healthy rats, cited from earlier work.
For data set [16], the target named is T1, IL-6 receptor (Homo sapiens, UniProt P08887).
T1 construct: host or cells: patients (in vivo)
To be noted: preliminary clinical data; cited from earlier work.

Like-named read-outs stand apart in the source and are kept apart here.

T1 sequence (P08887 20-468): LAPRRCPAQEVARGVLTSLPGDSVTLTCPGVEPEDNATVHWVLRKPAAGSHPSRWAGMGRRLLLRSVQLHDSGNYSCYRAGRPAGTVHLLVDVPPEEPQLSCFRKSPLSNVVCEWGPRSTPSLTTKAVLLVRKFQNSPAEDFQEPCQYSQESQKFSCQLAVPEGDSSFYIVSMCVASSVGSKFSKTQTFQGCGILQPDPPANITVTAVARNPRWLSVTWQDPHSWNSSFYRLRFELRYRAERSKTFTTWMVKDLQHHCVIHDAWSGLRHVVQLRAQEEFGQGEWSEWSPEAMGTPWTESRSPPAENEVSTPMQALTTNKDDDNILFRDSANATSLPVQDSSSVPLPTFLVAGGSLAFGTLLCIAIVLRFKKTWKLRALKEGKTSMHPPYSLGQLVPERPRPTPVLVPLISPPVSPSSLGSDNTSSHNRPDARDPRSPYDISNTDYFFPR

What is called IC50 is the concentration needed to halve the response being measured. For the compound `C=C(C)[C@@H]1CCC(C)=C[C@H]1c1c(O)cc(CCCCC)cc1O` [CBD, 2-[(1R,6R)-3-methyl-6-(1-methylethenyl)-2-cyclohexen-1-yl]-5-pentyl-1,3-benzenediol], the “FFU values (viral activity of SARS-CoV-2 in vitro)” value in [1] (0.25-5 μM) is listed as “reduce the FFU values in a dose dependent manner”. The concentration for half-maximal inhibition (IC50) in data set [1] (Severe acute respiratory syndrome coronavirus 2, Vero C1008, Vero E6 cells, 5 μM values excluded, read-out: IC50 of inhibition of viral activity) worked out at 789 nM. Moreover, the target peak exposure in data set [2] was 2,300 ng/ml. The “log P” value in [3] is reported as “about 6.1”. In data set [4], the maximum plasma concentration is given as 14,000 ng/ml. Besides, the “effective concentration for suppressive effect on IL-6 secretion” value in data set [5] was ~5 µM. For the same compound, in data set [6] (20 mg/kg, mice after LPS-induced lung inflammation), the “number of leukocytes including macrophages and neutrophils in bronchoalveolar lavage fluid” value was “decreases”. In [6] (0.3-80 mg/kg intraperitoneal, 60 minutes before LPS instillation), the “total leukocytes migration, myeloperoxidase activity, pro-inflammatory cytokine production including TNF-α and IL-6 and vascular permeability” value is on record as “significantly decreased”. Further, in [6] (prophylactic application, intraperitoneal), the “dose at which effects reached a nearly maximum extent” value is given as 20 mg/kg. In addition, in data set [7], the “mechanical lung function, leukocyte migration, myeloperoxidase activity, vascular permeability, cytokines/chemokines” value was “improved mechanical lung function”. The “release of pro-inflammatory cytokines” value in data set [8] is listed as “suppressed”. For the same compound, the “migration of human neutrophils” value in data set [9] is “inhibits”. Further, the “CD83 dendritic cell activation marker” value in [10] is given as “suppresses”. Moreover, the “apoptosis in microglial cells” value in data set [11] is reported as “induces apoptosis”. Also, in data set [12], the “expression of MDSCs” value is listed as “induces”; the “pro-inflammatory cytokines such as IL-2, TNF-α, and IL-6” value was “reduction”. Besides, in data set [13] (dose-dependently), the “autoantigen-specific Th17 cell phenotype (IL-17)” value is “reduced”. In data set [13], the “IL-6 production and secretion” value is reported as “decreased”; the “production of IL-10” value is “increased”. The “effect on induced kidney injury (Treg17/Th17 levels)” value in [14] is recorded as “renoprotective”. In addition, the “numbers of NK cells and NKT cells” value in data set [15] (2.5 mg/kg per day) is reported as “increased”. Besides, the “numbers of NK cells and NKT cells” value in data set [15] (5 mg/kg per day) is “not affected”. The “number of T cells including T helper cells and cytotoxic T cells and of B cells” value in data set [15] (daily 5 mg/kg) is on record as “significantly reduced”.

For “tocilizumab: humanized monoclonal antibody against the IL-6 receptor”, in [16], the “clinical effect in patients with severe SARS-CoV-2 pneumonia” value is reported as “beneficial effects”.
